Source: article PMC7555839 (Frontiers in Microbiology, 2020)
≈ marks a conversion by molar mass, not a printed value. Like-named read-outs stand apart in the source and are kept apart here.

Tests used:
[1] = test system: Salmonella typhimurium TA100; settings: Positive control
[2] = test system: Salmonella typhimurium TA1535; settings: Positive control
[3] = test system: Escherichia coli mutant [wp2 (pKM101)]; settings: Positive control, + S9, 4 µg/well
[4] = test system: Salmonella typhimurium TA98; settings: Positive control
[5] = test system: Salmonella typhimurium TA1537; test: Ames test; settings: Positive control
[6] = test system: fusidic acid-resistant S. aureus isolates; parameters: method as in Castanheira et al., 2010; settings: ref Castanheira et al., 2010; cited from earlier work
[7] = test system: Staphylococcus aureus USA300 JE2; test: Broth microdilution (MIC/MBC); assay type: cell-based; settings: USA300, broth microdilution, starter concentration of the tolerance assay, read-out: MIC value for USA300
MRSA strain 43484 = test: Mouse skin (wound) infection model, topical treatment; assay type: in vivo, Staphylococcus aureus; settings: 2%, 50 μl topical twice daily for 3 days, female mice, skin biopsies day 4
Description: To study the effect of topical treatment with JBC 1847 against MRSA strain 43484, a mouse skin infection model was established. Initially, female mice (18–22 g) were orally treated with 45 μl nurofen (20 mg ibuprofen/ml) and anaesthetized with 0.15 ml s.c. of Zoletil mix. The fur was removed from an area of 6 cm^2 and a part of epidermis was subsequently scraped off to obtain a 1 cm^2 superficial skin lesion. The mice were inoculated with 10 μl of a saline solution containing approximately 10^7 CFU. The day after inoculation, topical treatment with 50 μl test compound was initiated and performed twice daily for a 3-day period. Fucidic acid was included as a positive control, and vehicle treatment was included as a negative control. Through the entire study, the behavior and clinical signs of the mice were carefully observed. Mice were killed the day after last treatment, and skin biopsies from the wounded area were collected. The skin samples were homogenized using a Dispomixer and serially diluted in saline/Triton X. To determine the bacterial concentration, 20 μl spots were transferred to MRSA Brilliance agar plates (Oxoid, Thermo Scientific, Roskilde, Denmark) and incubated 20–48 h at 35°C.
Data were statically analyzed and visualized using RStudio v3.6.3 ([R Core Team, 2020]) and Microsoft excel. In general, the values reflecting the bacterial concentration (CFU/ml) were transformed into a logarithmic scale. In the growth and viability assay, the mean numbers of the bacterial concentrations from the triplicates were plotted against time and standard deviations shown as error bars. To investigate differences in bacterial concentration between treatment groups in the in vivo assay, multiple group comparisons were performed using ANOVA and P < 0.05 considered significant. The data was visualized in a standard box plot.

plasma proteins = settings: cited from earlier work
S. aureus USA300 = test: Induced tolerance assay (23 days); settings: for MIC: Staphylococcus aureus
E. coli strains = test system: E. coli strains; parameters: method as in Nehme et al., 2018; settings: broth dilution method, ref Nehme et al., 2018; cited from earlier work
MRSA strain = test system: MRSA strain; parameters: method as in Nehme et al., 2018; settings: broth dilution method, ref Nehme et al., 2018; cited from earlier work

Structure (SMILES): Nc1ccc2cc3ccccc3cc2c1 [2-AA, 2-Aminoanthracene, reference compound]
- Mean number of reverse mutated colonies ([1]; TA100, + S9, 0.6 µg/well): 240.0 ± 49.15
- Mean number of reverse mutated colonies ([2]; TA1535, + S9, 0.6 µg/well): 34.00 ± 5.20
- Mean number of reverse mutated colonies [3]: 161.33 ± 18.90
- Mean number of reverse mutated colonies ([4]; TA98, + S9, 0.6 µg/well): 332.0 ± 36.66
- Mean number of reverse mutated colonies ([5]; TA1537, + S9, 0.6 µg/well): 60.00 ± 5.00

Structure (SMILES): O=[N+]([O-])c1ccc2c(c1)Cc1ccccc1-2 [2-NF, 2-Nitrofluorene, reference compound]
- Mean number of reverse mutated colonies ([4]; TA98, −S9, 2 µg/well): 268.00 ± 28.84

Structure (SMILES): CC(=O)O[C@H]1C[C@@]2(C)[C@@H](C[C@@H](O)[C@H]3[C@@]4(C)CC[C@@H](O)[C@@H](C)[C@@H]4CC[C@@]32C)/C1=C(\CCC=C(C)C)C(=O)O [Fusidic acid, reference compound]
- MIC values (highly elevated) [6]: ≥ 512 µg/mL
- MIC [7]: 0.03 µg/mL (≈ 0.0581 µM)
- Reduction of bacterial counts compared with the vehicle (MRSA strain 43484): 1.5 log10 CFU
- PPB (plasma protein binding) (plasma proteins; ref Zeitlinger et al., 2011): approximately 98%
- MIC (S. aureus USA300; USA300, 24 h, read-out: MIC Day 1): 0.03 µg/mL (≈ 0.0581 µM)
- MIC (S. aureus USA300; USA300, 552 h, read-out: MIC Day 23): 7 µg/mL (≈ 13.5 µM)
- Increase in MIC (S. aureus USA300; tolerance assay, during the 23 days): 233 fold

Structure (SMILES): COc1ccc2nc3cc(Cl)ccc3c(NCCCNCCCl)c2c1 [ICR 191, Acridine Mutagen (ICR 191), reference compound]
- Mean number of reverse mutated colonies ([5]; TA1537, −S9, 0.2 µg/well): 54.67 ± 16.26

Structure (SMILES): CN(C)CCCN1c2ccccc2Sc2ccccc21 [Promazine]
- MIC (E. coli strains): 128 µg/mL (≈ 450 µM)
- MIC (MRSA strain): 128 µg/mL (≈ 450 µM)

Structure (SMILES): [N-]=[N+]=[N-].[Na+] [SA, Sodium azide, reference compound]
- Mean number of reverse mutated colonies ([1]; TA100, −S9, 0.24 µg/well): 176.0 ± 46.13
- Mean number of reverse mutated colonies ([2]; TA1535, −S9, 0.24 µg/well): 111.0 ± 9.54

Structure (SMILES): CO/N=C(\C(=O)N[C@@H]1C(=O)N2C(C(=O)O)=C(CSc3nc(=O)c(=O)[nH]n3C)CS[C@H]12)c1csc(N)n1 [ceftriaxone]
- PPB (plasma protein binding) (plasma proteins; ref Dutta et al., 2001): 90–95%
